Source: ChEMBL document CHEMBL4602709 (ACS Med Chem Lett, 2020)

Key:
[1] = molecular target: Tyrosine-protein kinase ABL1 (Homo sapiens, UniProt P00519); test: Inhibition of human ABL1 assessed as residual activity using EAIYAAPFAKKK as substrate by [gamma-33P]-ATP assay
[2] = molecular target: Cytochrome P450 3A4 (Homo sapiens, UniProt P08684); test: Inhibition of human recombinant CYP3A4 expressed in insect cell microsomes in presence of NADPH by fluorescence assay; assay type: ADME
[3] = molecular target: Voltage-gated inwardly rectifying potassium channel KCNH2 (Homo sapiens, UniProt Q12809); test: Inhibition of human ERG incubated for 4 hrs by competitive fluorescence tracer binding based assay
[4] = Metabolic stability in human liver microsomes assessed as half life at 3 uM measured up to 30 mins in presence of NADPH by […] analysis; assay type: ADME, Microsome
[5] = Metabolic stability in mouse liver microsomes assessed as half life at 3 uM measured up to 30 mins in presence of NADPH by […] analysis; assay type: ADME, Microsome
[6] = molecular target: T1, Discoidin domain-containing receptor 2 (Homo sapiens) (UniProt Q16832); test: Inhibition of DDR2 (unknown origin) assessed as residual activity at 10 uM incubated for 5 mins in presence of [gamma-33ATP] by scintillation counting based radiometry assay relative to control
T1 sequence (whole entry): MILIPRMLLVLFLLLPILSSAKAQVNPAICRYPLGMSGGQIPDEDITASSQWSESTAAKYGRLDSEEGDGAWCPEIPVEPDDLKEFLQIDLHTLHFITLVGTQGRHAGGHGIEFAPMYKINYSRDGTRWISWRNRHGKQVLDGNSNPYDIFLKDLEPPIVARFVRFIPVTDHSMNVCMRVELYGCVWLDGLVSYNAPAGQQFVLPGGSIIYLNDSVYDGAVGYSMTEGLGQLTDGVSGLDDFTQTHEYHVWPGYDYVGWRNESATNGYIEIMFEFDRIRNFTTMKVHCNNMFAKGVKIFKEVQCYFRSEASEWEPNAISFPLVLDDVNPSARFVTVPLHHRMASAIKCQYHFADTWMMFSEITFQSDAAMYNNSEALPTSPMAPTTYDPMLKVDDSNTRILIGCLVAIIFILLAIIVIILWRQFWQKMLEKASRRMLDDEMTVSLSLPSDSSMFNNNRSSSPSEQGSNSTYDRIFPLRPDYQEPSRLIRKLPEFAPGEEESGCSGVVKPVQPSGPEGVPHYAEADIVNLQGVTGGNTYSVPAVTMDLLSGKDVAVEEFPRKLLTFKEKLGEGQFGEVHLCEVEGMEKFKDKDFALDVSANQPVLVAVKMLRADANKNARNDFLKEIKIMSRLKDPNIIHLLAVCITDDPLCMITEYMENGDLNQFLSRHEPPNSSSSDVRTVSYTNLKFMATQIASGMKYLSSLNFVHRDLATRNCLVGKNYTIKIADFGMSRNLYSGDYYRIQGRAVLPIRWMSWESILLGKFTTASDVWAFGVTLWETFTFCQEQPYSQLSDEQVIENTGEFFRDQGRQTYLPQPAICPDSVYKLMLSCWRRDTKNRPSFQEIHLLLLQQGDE

[7] = molecular target: Proto-oncogene tyrosine-protein kinase Src (Homo sapiens, UniProt P12931); test: Inhibition of SRC (unknown origin) assessed as residual activity at 10 uM incubated for 5 mins in presence of [gamma-33ATP] by scintillation counting based radiometry assay relative to control
[8] = molecular target: T2, Ephrin type-B receptor 2 (Homo sapiens) (UniProt P29323); test: Inhibition of EPHB2 (unknown origin) assessed as residual activity at 10 uM incubated for 5 mins in presence of [gamma-33ATP] by scintillation counting based radiometry assay relative to control
T2 sequence (whole entry): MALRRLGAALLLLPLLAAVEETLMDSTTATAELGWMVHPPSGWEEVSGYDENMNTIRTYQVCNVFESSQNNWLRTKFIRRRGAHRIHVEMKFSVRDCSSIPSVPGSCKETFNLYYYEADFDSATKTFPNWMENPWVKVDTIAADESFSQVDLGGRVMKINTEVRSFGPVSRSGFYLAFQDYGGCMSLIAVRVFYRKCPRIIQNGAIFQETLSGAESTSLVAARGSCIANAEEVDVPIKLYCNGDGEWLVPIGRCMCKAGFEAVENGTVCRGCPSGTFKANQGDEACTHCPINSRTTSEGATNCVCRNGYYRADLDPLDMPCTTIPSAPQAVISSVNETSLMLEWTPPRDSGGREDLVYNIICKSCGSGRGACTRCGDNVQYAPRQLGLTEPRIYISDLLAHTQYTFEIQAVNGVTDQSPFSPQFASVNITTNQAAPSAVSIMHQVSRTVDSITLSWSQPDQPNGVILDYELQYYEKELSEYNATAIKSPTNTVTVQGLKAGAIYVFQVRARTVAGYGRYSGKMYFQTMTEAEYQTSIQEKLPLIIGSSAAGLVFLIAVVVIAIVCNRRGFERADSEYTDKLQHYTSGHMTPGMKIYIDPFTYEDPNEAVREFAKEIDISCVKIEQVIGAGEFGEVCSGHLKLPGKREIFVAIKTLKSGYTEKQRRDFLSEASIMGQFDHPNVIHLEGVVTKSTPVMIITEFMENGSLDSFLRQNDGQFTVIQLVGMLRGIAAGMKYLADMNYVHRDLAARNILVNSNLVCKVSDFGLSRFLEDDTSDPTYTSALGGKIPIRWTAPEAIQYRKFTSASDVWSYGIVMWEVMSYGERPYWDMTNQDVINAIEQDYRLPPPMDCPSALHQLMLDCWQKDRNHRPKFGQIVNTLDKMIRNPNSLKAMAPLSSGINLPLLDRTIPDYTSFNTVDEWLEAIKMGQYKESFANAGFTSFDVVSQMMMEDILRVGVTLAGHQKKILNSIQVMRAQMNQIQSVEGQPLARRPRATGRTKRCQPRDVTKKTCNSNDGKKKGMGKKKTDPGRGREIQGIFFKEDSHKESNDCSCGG

[9] = molecular target: Tyrosine-protein kinase Lck (Homo sapiens, UniProt P06239); test: Inhibition of LCK (unknown origin) assessed as residual activity at 10 uM incubated for 5 mins in presence of [gamma-33ATP] by scintillation counting based radiometry assay relative to control
[10] = molecular target: Serine/threonine-protein kinase Nek6 (Homo sapiens, UniProt Q9HC98); test: Inhibition of NEK6 (unknown origin) assessed as residual activity at 10 uM incubated for 5 mins in presence of [gamma-33ATP] by scintillation counting based radiometry assay relative to control
[11] = species on record: Homo sapiens; test: Inhibition of VEGFR (unknown origin) assessed as residual activity at 10 uM incubated for 5 mins in presence of [gamma-33ATP] by scintillation counting based radiometry assay relative to control
[12] = molecular target: T3, Mitogen-activated protein kinase kinase kinase kinase 3 (Homo sapiens) (UniProt Q8IVH8); test: Inhibition of MAP4K3 (unknown origin) assessed as residual activity at 10 uM incubated for 5 mins in presence of [gamma-33ATP] by scintillation counting based radiometry assay relative to control
T3 sequence (whole entry): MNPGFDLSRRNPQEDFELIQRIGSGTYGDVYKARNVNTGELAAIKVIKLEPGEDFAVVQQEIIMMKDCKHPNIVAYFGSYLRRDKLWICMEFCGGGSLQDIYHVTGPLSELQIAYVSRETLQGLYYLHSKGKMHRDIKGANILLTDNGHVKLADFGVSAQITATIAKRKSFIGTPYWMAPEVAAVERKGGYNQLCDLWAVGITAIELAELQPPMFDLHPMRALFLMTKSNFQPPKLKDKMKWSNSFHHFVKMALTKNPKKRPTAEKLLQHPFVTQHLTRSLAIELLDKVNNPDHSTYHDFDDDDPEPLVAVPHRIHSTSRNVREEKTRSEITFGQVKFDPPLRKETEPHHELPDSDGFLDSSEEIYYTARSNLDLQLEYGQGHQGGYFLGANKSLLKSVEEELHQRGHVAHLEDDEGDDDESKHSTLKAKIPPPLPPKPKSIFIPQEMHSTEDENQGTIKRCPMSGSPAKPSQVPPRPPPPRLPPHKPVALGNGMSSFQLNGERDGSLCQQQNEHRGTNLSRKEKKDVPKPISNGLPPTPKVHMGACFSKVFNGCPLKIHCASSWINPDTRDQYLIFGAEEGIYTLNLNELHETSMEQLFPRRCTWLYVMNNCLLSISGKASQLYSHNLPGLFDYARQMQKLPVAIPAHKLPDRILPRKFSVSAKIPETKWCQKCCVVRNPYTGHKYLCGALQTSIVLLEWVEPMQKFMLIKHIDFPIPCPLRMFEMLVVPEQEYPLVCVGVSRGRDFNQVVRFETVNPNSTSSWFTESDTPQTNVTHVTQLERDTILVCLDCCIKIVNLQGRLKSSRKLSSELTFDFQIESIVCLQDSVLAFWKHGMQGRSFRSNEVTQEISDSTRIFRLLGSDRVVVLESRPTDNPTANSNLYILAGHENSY

Sequence of Tyrosine-protein kinase ABL1 (P00519 whole entry): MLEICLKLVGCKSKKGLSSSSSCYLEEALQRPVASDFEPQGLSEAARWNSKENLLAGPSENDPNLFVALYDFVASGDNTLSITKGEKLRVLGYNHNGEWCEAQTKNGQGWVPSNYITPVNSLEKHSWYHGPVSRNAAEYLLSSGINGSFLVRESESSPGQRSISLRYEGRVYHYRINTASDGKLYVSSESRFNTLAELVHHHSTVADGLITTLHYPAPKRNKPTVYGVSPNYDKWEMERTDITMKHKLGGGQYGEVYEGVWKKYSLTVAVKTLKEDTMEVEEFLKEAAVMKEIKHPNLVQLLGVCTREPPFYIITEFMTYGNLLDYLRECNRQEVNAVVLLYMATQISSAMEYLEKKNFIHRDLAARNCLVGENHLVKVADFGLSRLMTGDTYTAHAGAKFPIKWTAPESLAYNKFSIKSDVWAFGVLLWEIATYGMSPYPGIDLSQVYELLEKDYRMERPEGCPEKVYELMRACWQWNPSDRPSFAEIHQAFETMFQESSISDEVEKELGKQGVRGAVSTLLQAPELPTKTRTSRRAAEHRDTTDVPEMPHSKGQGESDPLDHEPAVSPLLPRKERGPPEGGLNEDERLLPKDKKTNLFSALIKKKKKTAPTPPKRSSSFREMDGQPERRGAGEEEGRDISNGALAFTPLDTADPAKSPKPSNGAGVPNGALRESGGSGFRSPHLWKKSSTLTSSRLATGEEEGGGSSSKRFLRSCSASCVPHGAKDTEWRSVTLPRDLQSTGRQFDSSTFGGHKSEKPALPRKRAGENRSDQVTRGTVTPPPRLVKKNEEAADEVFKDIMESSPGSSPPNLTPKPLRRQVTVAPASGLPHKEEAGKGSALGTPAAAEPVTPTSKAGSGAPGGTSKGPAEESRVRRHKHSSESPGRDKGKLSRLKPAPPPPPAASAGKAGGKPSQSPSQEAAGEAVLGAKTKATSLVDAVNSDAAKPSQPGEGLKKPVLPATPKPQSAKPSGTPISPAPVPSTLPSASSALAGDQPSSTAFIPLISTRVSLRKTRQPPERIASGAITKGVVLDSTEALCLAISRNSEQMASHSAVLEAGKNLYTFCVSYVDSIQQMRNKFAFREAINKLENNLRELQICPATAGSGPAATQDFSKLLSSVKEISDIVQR
Sequence of Voltage-gated inwardly rectifying potassium channel KCNH2 (Q12809 whole entry): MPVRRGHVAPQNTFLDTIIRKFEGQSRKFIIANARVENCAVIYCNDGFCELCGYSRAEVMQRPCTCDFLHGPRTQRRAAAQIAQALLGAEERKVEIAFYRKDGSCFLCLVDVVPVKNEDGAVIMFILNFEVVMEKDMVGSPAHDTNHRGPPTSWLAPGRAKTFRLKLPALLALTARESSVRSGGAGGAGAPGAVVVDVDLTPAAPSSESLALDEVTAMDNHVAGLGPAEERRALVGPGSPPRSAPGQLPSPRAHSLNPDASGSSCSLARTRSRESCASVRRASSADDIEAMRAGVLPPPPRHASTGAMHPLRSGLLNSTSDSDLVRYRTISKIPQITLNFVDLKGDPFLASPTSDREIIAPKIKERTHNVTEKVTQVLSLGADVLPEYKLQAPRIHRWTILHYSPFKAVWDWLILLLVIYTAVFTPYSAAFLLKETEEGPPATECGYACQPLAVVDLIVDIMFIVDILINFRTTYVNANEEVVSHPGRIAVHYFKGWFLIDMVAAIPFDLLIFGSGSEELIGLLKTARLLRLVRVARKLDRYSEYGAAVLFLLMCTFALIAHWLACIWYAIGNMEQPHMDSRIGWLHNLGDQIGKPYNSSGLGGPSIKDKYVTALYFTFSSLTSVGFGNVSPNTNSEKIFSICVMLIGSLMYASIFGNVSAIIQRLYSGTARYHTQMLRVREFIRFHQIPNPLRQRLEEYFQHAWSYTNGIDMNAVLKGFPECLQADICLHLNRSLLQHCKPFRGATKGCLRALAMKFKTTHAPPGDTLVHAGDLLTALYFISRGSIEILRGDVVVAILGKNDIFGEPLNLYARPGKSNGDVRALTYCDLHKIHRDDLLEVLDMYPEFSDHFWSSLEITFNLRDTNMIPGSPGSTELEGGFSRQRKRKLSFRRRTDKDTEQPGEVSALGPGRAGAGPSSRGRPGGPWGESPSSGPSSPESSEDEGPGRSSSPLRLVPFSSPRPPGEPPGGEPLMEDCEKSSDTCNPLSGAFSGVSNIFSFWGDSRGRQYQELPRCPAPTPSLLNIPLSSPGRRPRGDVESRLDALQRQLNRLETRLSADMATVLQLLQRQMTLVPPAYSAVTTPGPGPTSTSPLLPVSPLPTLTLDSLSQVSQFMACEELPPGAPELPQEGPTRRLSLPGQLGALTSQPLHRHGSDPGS
Sequence of Cytochrome P450 3A4 (P08684 whole entry): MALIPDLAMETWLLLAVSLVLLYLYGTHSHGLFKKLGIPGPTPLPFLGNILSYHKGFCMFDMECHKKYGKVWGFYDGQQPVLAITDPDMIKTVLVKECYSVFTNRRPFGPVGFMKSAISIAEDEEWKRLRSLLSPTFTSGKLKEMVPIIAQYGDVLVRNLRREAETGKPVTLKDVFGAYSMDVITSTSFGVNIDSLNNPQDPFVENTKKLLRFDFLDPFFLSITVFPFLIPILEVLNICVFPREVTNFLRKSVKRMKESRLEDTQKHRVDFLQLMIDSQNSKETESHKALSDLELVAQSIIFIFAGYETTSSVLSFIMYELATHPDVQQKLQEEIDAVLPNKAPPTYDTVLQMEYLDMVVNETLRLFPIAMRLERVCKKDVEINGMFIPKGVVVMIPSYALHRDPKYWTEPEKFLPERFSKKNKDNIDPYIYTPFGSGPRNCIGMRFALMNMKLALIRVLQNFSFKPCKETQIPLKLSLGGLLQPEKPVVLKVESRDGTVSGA
Sequence of Serine/threonine-protein kinase Nek6 (Q9HC98 whole entry): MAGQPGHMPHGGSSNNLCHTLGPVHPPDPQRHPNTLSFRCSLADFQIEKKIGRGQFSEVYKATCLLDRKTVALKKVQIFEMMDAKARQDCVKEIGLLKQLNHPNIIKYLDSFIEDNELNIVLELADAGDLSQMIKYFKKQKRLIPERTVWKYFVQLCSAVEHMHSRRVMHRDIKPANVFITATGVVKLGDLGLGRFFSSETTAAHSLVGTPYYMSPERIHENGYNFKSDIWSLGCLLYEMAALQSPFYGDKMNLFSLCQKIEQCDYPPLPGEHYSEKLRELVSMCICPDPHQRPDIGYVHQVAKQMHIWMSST
Sequence of Proto-oncogene tyrosine-protein kinase Src (P12931 2-536 limits assumed): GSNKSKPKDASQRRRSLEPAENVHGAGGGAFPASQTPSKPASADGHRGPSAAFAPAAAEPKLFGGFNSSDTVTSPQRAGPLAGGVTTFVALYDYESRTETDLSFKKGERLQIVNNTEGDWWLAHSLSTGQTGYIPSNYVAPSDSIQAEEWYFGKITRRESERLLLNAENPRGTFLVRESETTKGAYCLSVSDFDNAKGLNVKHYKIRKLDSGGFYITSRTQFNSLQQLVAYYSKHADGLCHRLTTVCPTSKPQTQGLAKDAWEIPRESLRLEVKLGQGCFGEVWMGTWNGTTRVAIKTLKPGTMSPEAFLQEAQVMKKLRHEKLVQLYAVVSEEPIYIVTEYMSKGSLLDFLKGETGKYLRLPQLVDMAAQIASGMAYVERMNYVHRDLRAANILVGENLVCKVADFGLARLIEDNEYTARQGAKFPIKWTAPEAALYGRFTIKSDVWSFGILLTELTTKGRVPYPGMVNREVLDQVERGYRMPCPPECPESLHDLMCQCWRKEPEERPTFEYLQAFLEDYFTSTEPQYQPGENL
Sequence of Tyrosine-protein kinase Lck (P06239 2-509 limits assumed): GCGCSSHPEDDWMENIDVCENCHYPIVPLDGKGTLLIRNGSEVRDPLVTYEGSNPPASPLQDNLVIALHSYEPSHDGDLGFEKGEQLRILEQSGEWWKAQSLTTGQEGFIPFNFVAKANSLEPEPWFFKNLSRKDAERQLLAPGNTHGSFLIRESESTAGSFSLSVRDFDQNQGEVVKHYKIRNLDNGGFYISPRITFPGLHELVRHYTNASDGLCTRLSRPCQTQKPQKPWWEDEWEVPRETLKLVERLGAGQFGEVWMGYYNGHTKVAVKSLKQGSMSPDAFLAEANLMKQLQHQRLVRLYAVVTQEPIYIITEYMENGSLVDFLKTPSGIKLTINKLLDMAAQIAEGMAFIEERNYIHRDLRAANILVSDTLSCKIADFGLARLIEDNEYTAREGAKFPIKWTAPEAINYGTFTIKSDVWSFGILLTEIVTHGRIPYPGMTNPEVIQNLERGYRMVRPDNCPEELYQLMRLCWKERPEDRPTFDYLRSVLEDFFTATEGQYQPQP

SMILES	IC50 [1]	IC50 [2]	half-life at 3 µM [4]	half-life at 3 µM [5]	IC50 [3]	other results
COCCN1CCN(Cc2ccc(NC(=O)c3ccc(C)c(C#Cc4cnc5cccnn45)c3)cc2C2CC2)CC1	–	13500 nM	–	–	80 nM	–
Cc1ccc(C(=O)Nc2ccc(CN3CCN(C)CC3)c(C(F)(F)F)c2)cc1C#Cc1cnc2cccnn12 [PONATINIB]	–	–	3.04 h	0.532 h	–	Activity [6]: 3%; Activity [7]: 11%; Activity [8]: 2%; Activity [9]: 29%; Activity [10]: 52%; Activity [11]: 28%; Activity [12]: 2%
Cc1ccc(C(=O)Nc2ccc(CN3Cc4ccc(O)cc4C3)c(Cl)c2)cc1C#Cc1cnc2cccnn12	> 30 nM	–	2.63 h	0.441 h	–	–

More lines, main results first:

IC50 [1]	IC50 [2]	half-life at 3 µM [4]	half-life at 3 µM [5]	SMILES	IC50 [3]	other results
0.39 nM	13400 nM	–	–	Cc1ccc(C(=O)Nc2ccc(CN3CCN(CCO)CC3)c(Cl)c2)cc1C#Cc1cnc2cccnn12	100 nM	–
0.3 nM	–	–	–	Cc1ccc(C(=O)Nc2ccc(CN3CCN(CCO)CC3)c(C3CC3)c2)cc1C#Cc1cnc2cccnn12	340 nM	–
